Experimental data published in patent US9795602B2, “Polycyclic-carbamoylpyridone compounds and their pharmaceutical use” (Gilead Sciences, Inc., priority 2014, dated 2017).
Where two headings read alike, the source gives them in different places.

How the values were obtained:
[1] = test system: HIV-IIIb; experiment: Antiviral assay in MT4 cells; assay type: cell-based; details: Human immunodeficiency virus 1, IIIB, MT4, 120 h
Procedure: 1 mL aliquots of 2×10^6 MT4 cells are pre-infected for 1 and 3 hours respectively at 37° C. with 25 μL (MT4) or of either cell growth medium (mock-infected) or a fresh 1:250 dilution of an HIV-IIIb concentrated ABI stock (0.004 m.o.i. for MT4 cells). Infected and uninfected cells are diluted in cell growth medium and 35 μL of 2000 (for MT4) cells is added to each well of the assay plates.
Assay plates were then incubated in a 37° C. incubator. After 5 days of incubation, 25 μL of 2× concentrated CellTiter-Glo™ Reagent (catalog # G7573, Promega Biosciences, Inc., Madison, Wis.) was added to each well of the assay plate. Cell lysis was carried out by incubating at room temperature for 2-3 minutes, and then chemiluminescence was read using the Envision reader (PerkinElmer).

[2] = Cytotoxicity (CC50) in MT4 cells, mock-infected; assay type: cell-based; details: human
Procedure: Infected and uninfected cells are diluted in cell growth medium and 35 μL of 2000 (for MT4) cells is added to each well of the assay plates. Assay plates were then incubated in a 37° C. incubator. After 5 days of incubation, 25 μL of 2× concentrated CellTiter-Glo™ Reagent (catalog # G7573, Promega Biosciences, Inc., Madison, Wis.) was added to each well of the assay plate. Cell lysis was carried out by incubating at room temperature for 2-3 minutes, and then chemiluminescence was read using the Envision reader (PerkinElmer).

[3] = target: PXR (NR1I2) (Homo sapiens (Human), UniProt O75469); experiment: Human PXR activation assay (luciferase reporter, DPX2 cells); assay type: cell-based; details: human
Procedure: Luciferase Reporter Gene Assay.
A stably transformed tumor cell line (DPX2) was plated on 96-well microtiter plates. […]. The number of viable cells was determined and the reporter gene activity was assessed. […]

[4] = test system: HIV-1 E138K/Q148K; assay type: cell-based; details: MT2 cells; mean EC50 mutant / mean EC50 wt
Procedure: (§1) For the antiviral assay utilizing MT-2 cells, 50 μL of 2× test concentration of 3-fold serially diluted compound in culture medium with 10% FBS was added to each well of a 96-well plate (9 concentrations) in triplicate. MT-2 cells were infected with wild-type or mutant variants of HIV-1 for 3 hours using a volume of viral inoculum determined to produce 90% cell killing. Fifty microliters of infected cell suspension in culture medium with 10% FBS (˜1.5×10^4 cells) was then added to each well containing 50 μL of serially diluted compound. The plates with HIV-infected cultures were then incubated at 37° C. for 5 days in the presence of the tested compounds. After 5 days of incubation, 100 μL of CellTiter-Glo™ Reagent (catalog # G7571, Promega Biosciences, Inc., Madison, Wis.) was added to each well. Cell lysis was carried out by incubating at room temperature for 10 min followed by a chemiluminescence read-out.
(§2) The chemiluminescence readout from the 10-point antiviral dose response was analyzed directly by curve fitting with equation (I) to determine the EC50.
(§3) where y=Cell Survival, M=maximum cell survival enabled by drug protection, H=baseline cell survival without drug protection, n=Hill coefficient of the antiviral dose response, m=Hill coefficient of the cytotoxicity dose response, and [I]=inhibitor concentration.
(§4) EC50 values (mean±standard deviation) were calculated from at least three independent experiments performed in triplicate. The fold-change in antiviral activity of tested compounds was calculated as a ratio of the mean EC50 for each mutant virus divided by the mean EC50 of the control WT virus.

[5] = test system: HIV-1 E92Q/N155H; assay type: cell-based; details: MT2 cells; mean EC50 mutant / mean EC50 wt
Procedure: as §1, §2, §3, §4

[6] = test system: HIV-1 G140S/Q148R; assay type: cell-based; details: MT2 cells; mean EC50 mutant / mean EC50 wt
Procedure: as §1, §2, §3, §4

[7] = test system: HIV-1 N155H/Q148R; assay type: cell-based; details: MT2 cells; mean EC50 mutant / mean EC50 wt
Procedure: as §1, §2, §3, §4

[8] = test system: wild-type HIV-1; experiment: Antiviral assay in MT-2 cells, wild-type HIV-1; assay type: cell-based; details: Human immunodeficiency virus 1, 120 h; MT2 cells, wild-type HIV-1, 5 days; read-out: wt
Procedure: as §1, §2, §3, §4

[9] = Plasma protein binding (equilibrium dialysis); assay type: in vitro ADME; details: human, plasma (sodium EDTA) versus buffer; 2 μM in plasma vs. buffer, 24 hours at 37° C.; read-out: % Free HP/Buffer
Procedure: Plasma protein binding was determined using a HTD96b equilibrium dialyzer with a plate base, stainless steel pressure plate and Teflon bock. 9 Teflon bars, labeled sequentially from A through I, were assembled with two stainless steel connecting rods. Membranes were placed between two Teflon bars, with the membrane placed approximately 2 mm below the top edge of the bar and the lower membrane edge overlapped the bottom of all wells. The membrane was soaked for about 20 minutes in water, about 20 minutes in ethanol (30/70 v/v) and rinsed with water three times to remove the ethanol. It was soaked in PBS for at least 30 minutes. Plasma in sodium EDTA (Bioreclamation or equivalent) was used. The Plasma (not pH-adjusted) was stored at −80° C. and thawed at room temperature before use. The stock solution of the compounds tested was at 200 μM in DMSO. The quench solution used was 50 nM of an internal standard in 100% ACN. To prepare a 2 μM solution of the compound tested in plasma, 5 μL of a 200 μM stock solution was added to 495 μL of blank plasma. 100 μL plasma was added with 2 μM of test compound into one side of the well. 100 μL of buffer (for plasma vs. buffer) was added into another side of the well. The 96-well plate was covered using an adhesive sealing film and incubated for 24 hours at 37° C. under slow rotation. This procedure was replicated for each compound. 50 μL of plasma sample was put into a 96 well plate, 50 μL of buffer was added. 50 μL of buffer was put into a 96 well plate. 50 μL of plasma was added. 300 μL of quench solution was added and the plate sealed and shaken for 15 minutes. The material was centrifuged for 30 minutes at 3000 RPM and ˜250 μL was transferred into a short plate. The samples were analyzed by LC/MS. The resulting data is shown in the last row of Table 3 as “% Free” which corresponds to the percentage of compound not protein bound.

[10] = target: OCT2 (Homo sapiens (Human), UniProt O15244); experiment: OCT2 inhibition assay (14C-TEA uptake, OCT2-transfected MDCKII cells); assay type: cell-based
Procedure: MDCKII cells were maintained in minimal essential medium (MEM) with 1% Pen/Strep, 10% fetal bovine serum, and 0.25 mg/mL hygromycin B in an incubator set at 37° C., 90% humidity and 5% CO2. 24 hours prior to assay, media containing 5 mM sodium butyrate were added to MDCKII cells in flasks, and cells were grown to 80-90% confluence. On assay day, cells were trypsinized and resuspended in Krebs-Henseleit Buffer (KHB), pH 7.4 at […]. Cells were preincubated for 15 min in assay plate before addition of test compound or substrate.
Test compounds were serially diluted in DMSO and then spiked (2 μL) into in 0.4 mL KHB buffer containing wild-type or OCT2-transfected cells and incubated for 10 minutes. Assay was initiated with the addition of 0.1 mL of 100 μM ^14C-TEA in KHB buffer (20 μM final concentration after mixing). The concentration of TEA is based on the Km. After 10 minutes of incubation, the assay mixture was quenched with addition of 0.5 mL of ice-cold 1×PBS buffer. Samples were then centrifuged at 1000 rpm for 5 min and supernatants were removed. Wash steps were repeated four times with ice-cold PBS. Finally, the cell pellets were lysed with 0.2N NaOH and let sit at room temperature for at least 30 min to ensure complete lysis. Samples were then counted on liquid scintillation counter and dpm counts were used to perform the following calculations. The % inhibition was calculated as follows: % inhibition=[1−{[OCT2]i−[WT]ni}/{[OCT2]ni−[WT]ni}]*100 where, [OCT2]i represents the dpm count in the presence of test compound for either OCT2 cells, […] of test compound for OCT2 cells and [WT]ni represents the dpm count in the absence of test compound for wild type cells, respectively.

[11] = MT4 cells, HIV-IIIb, 5 days, read-out: EC50
[12] = 15 uM, DPX2 cells, % Emax relative to rifampicin, adjusted for DMSO background, read-out: PXR % inh at 15 uM (adjusted)

Sequence of PXR (NR1I2) (O75469 whole entry): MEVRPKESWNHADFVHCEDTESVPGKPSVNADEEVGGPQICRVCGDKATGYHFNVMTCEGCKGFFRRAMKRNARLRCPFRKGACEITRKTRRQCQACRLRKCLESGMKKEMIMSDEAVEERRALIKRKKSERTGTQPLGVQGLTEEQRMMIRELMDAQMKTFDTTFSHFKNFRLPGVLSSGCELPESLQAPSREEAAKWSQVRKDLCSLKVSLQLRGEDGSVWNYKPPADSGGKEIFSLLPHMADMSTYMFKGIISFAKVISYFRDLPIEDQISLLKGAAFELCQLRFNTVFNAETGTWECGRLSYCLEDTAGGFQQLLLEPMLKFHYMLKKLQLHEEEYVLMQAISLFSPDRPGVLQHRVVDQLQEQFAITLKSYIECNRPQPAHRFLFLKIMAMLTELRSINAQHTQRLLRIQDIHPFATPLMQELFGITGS
Sequence of OCT2 (O15244 whole entry): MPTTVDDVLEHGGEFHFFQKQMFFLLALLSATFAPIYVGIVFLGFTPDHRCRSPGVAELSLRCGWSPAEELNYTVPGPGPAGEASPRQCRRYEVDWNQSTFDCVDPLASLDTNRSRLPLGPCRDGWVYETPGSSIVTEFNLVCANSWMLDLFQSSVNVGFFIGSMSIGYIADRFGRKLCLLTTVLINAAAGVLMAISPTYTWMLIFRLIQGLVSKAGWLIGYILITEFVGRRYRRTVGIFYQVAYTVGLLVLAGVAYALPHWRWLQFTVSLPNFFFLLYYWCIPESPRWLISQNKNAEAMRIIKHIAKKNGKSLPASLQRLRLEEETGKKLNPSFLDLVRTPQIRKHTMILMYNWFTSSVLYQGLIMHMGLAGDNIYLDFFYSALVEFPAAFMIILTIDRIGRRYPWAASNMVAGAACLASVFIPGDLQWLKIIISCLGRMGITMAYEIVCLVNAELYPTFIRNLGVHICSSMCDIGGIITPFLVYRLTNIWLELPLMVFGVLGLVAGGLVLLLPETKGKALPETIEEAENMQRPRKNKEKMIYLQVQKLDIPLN

Row | SMILES | EC50 [1, 11] [nM] | CC50 at 5 days ([2]; mock-infected (uninfected)) [nM] | inhibition at 24 h, 15 µM [3, 12] [%] | other results
1 | CCN1C(=O)c2c(O)c(=O)c(C(=O)NCc3c(F)cc(F)cc3F)cn2[C@H]2COC[C@H]21 [Compound 44] | 5.68 | 38000 | 32 | Resistance fold shift E138K/Q148K vs. wild type [4]: 23.8 fold shift; Resistance fold shift E92Q/N155H vs. wild type [5]: 2.3 fold shift; Resistance fold shift G140S/Q148R vs. wild type [6]: 5.9 fold shift; Resistance fold shift N155H/Q148R vs. wild type [7]: 17.7 fold shift; EC50 [8]: 7.8 nM; fraction unbound at 24 h, 2 µM [9]: 0.068
2 | O=C(NCc1c(F)cc(F)cc1F)c1cn2c(c(O)c1=O)C(=O)N(CC(F)(F)F)[C@H]1COCC[C@H]12 [Compound 31] | 2.62 | 52500 | 1 | IC50 [10]: 10000 nM
3 | CCN1C(=O)c2c(O)c(=O)c(C(=O)NCc3c(F)cc(F)cc3F)cn2[C@H]2CCOC[C@H]21 [Compound 33] | 2.84 | 31100 | 12 | Resistance fold shift E138K/Q148K vs. wild type [4]: 5.9 fold shift; Resistance fold shift E92Q/N155H vs. wild type [5]: 0.9 fold shift; Resistance fold shift G140S/Q148R vs. wild type [6]: 2.5 fold shift; Resistance fold shift N155H/Q148R vs. wild type [7]: 2.2 fold shift; EC50 [8]: 2.5 nM; fraction unbound at 24 h, 2 µM [9]: 0.056
4 | O=C(NCc1ccc(F)c(Cl)c1F)c1cn2c(c(O)c1=O)C(=O)N(CC(F)F)[C@@H]1COCC[C@@H]12 [Compound 36] | 1.58 | 19700 | 5 | 
5 | CN1C(=O)c2c(O)c(=O)c(C(=O)NCc3c(F)cc(F)cc3F)cn2[C@H]2COCC[C@]21C(F)F [Compound 9] |  | 11300 |  | EC50 [1]: 1.4 nM; inhibition at 15 µM [3]: 27%
6 | CCN1C(=O)c2c(O)c(=O)c(C(=O)NCc3c(F)cc(F)cc3F)cn2[C@@H]2CCOC[C@H]21 [Compound 12] | 6.26 | 36500 | 18 | IC50 [10]: 6400 nM
7 | O=C(NCc1ccc(F)c(Cl)c1F)c1cn2c(c(O)c1=O)C(=O)N(CC(F)(F)F)[C@@H]1COCC[C@@H]12 [Compound 50] | 2.68 | 48400 | 1 | 
8 | O=C(NCc1c(F)cc(F)cc1F)c1cn2c(c(O)c1=O)C(=O)N[C@H]1CCCC[C@@H]12 [Compound 61] | 6.3 | 31400 |  | inhibition at 24 h, 15 µM [3]: 0%
9 | CN1C(=O)c2c(O)c(=O)c(C(=O)NCc3c(F)cc(F)cc3F)cn2[C@H]2[C@@H]3C[C@@H]3C[C@H]21 [Compound 53, (6aR,7aR,8aR,8bS)-4-hydroxy-6-methyl-3,5-dioxo-N-(2,4,6-trifluorobenzyl)-5,6,6a,7,7a,8,8a, 8b-octahydro-3H-cyclopropa[3,4]cyclopenta[1,2-e]pyrido[1,2-a]pyrazine-2-carboxamide] | 6.04 |  | 46 | CC50 at 5 days ([2]; mock-infected): 13300 nM
10 | CCN1C(=O)c2c(O)c(=O)c(C(=O)NCc3ccc(F)cc3F)cn2[C@H]2CCOC[C@H]21 [Compound 41] | 2.88 | 27400 | 21 | Resistance fold shift E138K/Q148K vs. wild type [4]: 3.5 fold shift; Resistance fold shift E92Q/N155H vs. wild type [5]: 2.1 fold shift; Resistance fold shift G140S/Q148R vs. wild type [6]: 2.9 fold shift; Resistance fold shift N155H/Q148R vs. wild type [7]: 1.8 fold shift; EC50 [8]: 2 nM; fraction unbound at 24 h, 2 µM [9]: 0.057
11 | CCN1C(=O)c2c(O)c(=O)c(C(=O)NCc3ccc(F)c(Cl)c3F)cn2[C@H]2COCC[C@H]21 [Compound 57, (4aR,11aR)-N-(3-chloro-2,4-difluorobenzyl)-5-ethyl-7-hydroxy-6,8-dioxo-1,3,4,4a,5,6,8,11a-octahydropyrano[4,3-e]pyrido[1,2-a]pyrazine-9-carboxamide] | 2.29 |  | 3 | CC50 at 5 days ([2]; mock-infected): 6450 nM
12 | CN1C(=O)c2c(O)c(=O)c(C(=O)NCc3c(F)cc(F)cc3F)cn2[C@H]2COC[C@H]21 [Compound 42] | 5.67 | 31900 | 3 | 
